Laboratory results: US20100204111A1 (priority 2007, published 2010)
Bridges are numbered along the chain shown (N, C = ends). Where no end group is shown, it is not given here. [ ]: non-standard residue; d: D form. Nle = CCCC[C@H](N)C(=O)O

How the values were obtained:
HCMV strain AD169 = format: cell-based; conditions: MRC-5 cells
HIV-1IIIB = assay: HIV-1 antiviral assay in CEM-SS cells; format: cell-based
Interleukin-4 (IL-4) = assay: Th1/Th2 Cytokine Profiling Assay: IL-4; format: cell-based, Balb/c mice; conditions: 10 micrograms per ml; Ovalbumin-restimulated Balb/c spleen cells; 72 hours
Description: (§1) On day 50, spleens of the mice were harvested (3 weeks after last boost with Ovalbumin). […] Thereafter, additional Ovalbumin was added to the cells at 10 micrograms/ml for in vitro restimulation of the cells. 72 hours later, cell supernatants were harvested and assayed using the Becton Dickinson Mouse Th1/Th2 Cytokine CBA Kit. This kit can be used to measure Interleukin-2 (IL-2), Interleukin-4 (IL-4), Interleukin-5 (IL-5), Interferon-γ (IFN-γ), and Tumor Necrosis Factor-α (TNF-α) protein levels in a single sample.

HUVEC = assay: Endothelial Tube Formation Assay; format: cell-based, human; conditions: 10 micrograms per ml, 20 hours, combination peptide 1:peptide 2 0.95 mole:1.05 mole
Description: The endothelial tube formation assay is based on the ability of endothelial cells to form three-dimensional capillary-like tubular structures when cultured on a gel of basement membrane extract. The endothelial tube formation assay represents a powerful model for studying inhibition and induction of angiogenesis. […] Positive control was vehicle only. The endothelial cells were allowed to form tubes foe 20 hours and were then examined under an inverted fluorescent microscope. Duplicate wells for each treatment were photographed and quantitatevily analyzed for an average tubule length using image analysis software ImageProPlus. Raw data were expressed as average tubule lengths in pixels ±standard deviation. Statistic p values were computed using the Student's t-test.

[1] = test system: Human Peripheral Blood Mononuclear Cells (PBMC), B cell proliferation; assay: B Cell Proliferation Assay (SAC plus Interleukin-2, 3H-thymidine); format: cell-based; conditions: 10 micrograms per ml; SAC plus Interleukin-2 stimulated PBMC; combination: 0.95 mole peptide 1 and 1.05 mole peptide 2
Description: Human Peripheral Blood Mononuclear Cells (PBMC) were obtained from normal human donors. […] 10^5/well PBMC were plated in 96-well microtiter plates and assayed in duplicate with the peptides. […] At the end of incubation time, the plates were harvested and the cells counted by liquid scintillation for the incorporation of ^3H-thymidine as a measure of B cell proliferation.

Interferon-γ (IFN-γ) = assay: Th1/Th2 Cytokine Profiling Assay: IFN-γ; format: cell-based, Balb/c mice; conditions: 10 micrograms per ml; Ovalbumin-restimulated Balb/c spleen cells; 72 hours
Description: as §1

[2] = test system: Tumor Necrosis Factor-α (TNF-α); assay: Th1/Th2 Cytokine Profiling Assay: TNF-α; format: cell-based, Balb/c mice; conditions: 10 micrograms per ml; Ovalbumin-restimulated Balb/c spleen cells; 72 hours
Description: as §1

[3] = test system: Primary Human endothelial cells (HUVEC); assay: Endothelial Cell Migration Assay; format: cell-based; conditions: 10 micrograms per ml, 22 hours, combination peptide 1:peptide 2 0.95 mole:1.05 mole
Description: Primary Human endothelial cells (HUVEC) were seeded in insert chambers with 3 micrometer pore size of multi-transwell plate for 6 hours at 37° C. in Endothelial Cell Basal Medium (EBM) supplemented with 0.1% bovine serum albumin. […] Images of 3 fields per insert were taken and the number of migrated cells per field were quantified using the ImageProPlus software. Data were analyzed for the average number of the migrated cells and standard deviation of six data points for each treatment condition. […] Statistic p values were computed using the Student's t-test.

Interleukin-5 (IL-5) = assay: Th1/Th2 Cytokine Profiling Assay: IL-5; format: cell-based, Balb/c mice; conditions: 10 micrograms per ml; Ovalbumin-restimulated Balb/c spleen cells; 72 hours
Description: as §1

Interleukin-2 (IL-2) = assay: Th1/Th2 Cytokine Profiling Assay: IL-2; format: cell-based, Balb/c mice; conditions: 10 micrograms per ml; Ovalbumin-restimulated Balb/c spleen cells; 72 hours
Description: as §1

[4] = test system: hepatitis B virus (HBV) ayw strain; format: cell-based; conditions: 10 micrograms per ml; HepG2-2.2.15 cells; six days

| Molecule | antiviral activity (positive control compound) (HCMV strain AD169; positive control, HCMV AD169) | antiviral activity (positive control compounds) (HIV-1IIIB) | IL-4 spleen cells; TH2 response (% of control) (Interleukin-4 (IL-4)) | inhibition of the tube formation of endothelial cells (HUVEC) [%] | induction of the proliferation of specifically stimulated human B-cells [1] [%] | IFNγ spleen cells; TH1 response (% of control) (Interferon-γ (IFN-γ)) | TNF-a spleen cells; TH1 response (% of control) [2] | inhibition of the migration of human endothelial cells [3] [%] | IL-5 spleen cells; TH2 response (% of control) (Interleukin-5 (IL-5)) | IL-2 spleen cells (% of control) (Interleukin-2 (IL-2)) | inhibition of HCMV plaque formation as compared to the virus control (HCMV strain AD169; 10 micrograms per ml, 7-10 days) | inhibition of HBV replication on tested liver cells [4] |
| --- | --- | --- | --- | --- | --- | --- | --- | --- | --- | --- | --- | --- |
| Nc1nc(O)c2ncn(COC(CO)CO)c2n1 [Ganciclovir, reference compound] | expected levels of antiviral activity |  |  |  |  |  |  |  |  |  |  |  |
| CC(C)(C)NC(=O)[C@@H]1CN(Cc2cccnc2)CCN1C[C@@H](O)C[C@@H](Cc1ccccc1)C(=O)N[C@H]1c2ccccc2C[C@H]1O [indinavir] |  | expected levels of antiviral activity |  |  |  |  |  |  |  |  |  |  |
| Cc1cn([C@H]2C[C@H](N=[N+]=[N-])[C@@H](CO)O2)c(=O)[nH]c1=O [AZT] |  | expected levels of antiviral activity |  |  |  |  |  |  |  |  |  |  |
| [dF]HLLREVLE[Nle]ARAEQLAQEAHKNRKL[Nle]EII-NH2 (lactam 19-22) [Peptide 1] |  |  | 114.4 % of control | 31 | 11.1 | 137.6 % of control | 120.0 % of control | 13 | 90.1 % of control | 210.4 % of control |  |  |
| Tyr-Gly-Gly-Phe-Met-Thr-Ser-Glu-Lys-Ser-Gln-Thr-Pro-Leu-Val-Thr-Leu-Phe-Lys-Asn-Ala-Ile-Ile-Lys-Asn-Ala-Tyr-Lys-Lys-Gly-Glu-OH [Peptide 2] |  |  | 100.6 % of control | 38 | 22.7 | 106.6 % of control | 110.7 % of control | 29 | 103.3 % of control | 163.9 % of control | did not inhibit | no effect |
